One test concerns the target T1, CDK5/p25 (Homo sapiens, UniProt Q00535).
T1 construct: made in house
Put plainly: CDK5/p25 kinase assay. It counts as biochemical. The conditions noted are these: 15 μM ATP. The method, then: (§1) The twenty-two (5Z) 5-arylidene-2-thioxo-1,3-thiazolidin-4-ones 3a–v and the twenty-four (5Z) 2-amino-5-arylidene-1,3-thiazolidin-4(5H)-ones 5a–x were evaluated against four different and representative in vitro kinase assays DYRK1A (dual specificity tyrosine phosphorylation regulated kinase), CK1 δ/e (caseine kinase 1), CDK5/p25 (cyclin dependant kinase), and GSK3 α/β (glycogen synthase kinase 3) to evaluate their inhibition potency. […] All the compounds were initially tested at a 10 μM concentration.
(§2) After 30-min incubation at 30 °C, the reaction was stopped by harvesting, using a FilterMate harvester (Packard), onto P81 phospho-cellulose papers (GE Healthcare, Chicago, IL, USA) which were washed in 1% phosphoric acid. Scintillation fluid was added and the radioactivity measured in a Packard counter. Blank values were subtracted and activities calculated as pmoles of phosphate incorporated for the 30-min incubation. The activities were expressed in % of the maximal activity, i.e., in the absence of inhibitors. Controls were performed with appropriate dilutions of DMSO.
CDK5/p25 (human, recombinant) was prepared as previously described. […] ATP (3000 Ci/mmol; 10 mCi/mL) in a final volume of 30 μL. After 30-min incubation at 30 °C, 25 μL aliquots of supernatant were spotted onto 2.5 × 3 cm pieces of Whatman P81 phospho-cellulose paper, and, 20 s later, the filters were washed five times (for at least 5 min each time) in a solution of 10 mL phosphoric acid/litter of water. The wet filters were counted in the presence of 1 mL ACS (Amersham, UK) scintillation fluid.

The next test addresses Casein kinase 1 (CK1δ/ε). The test is described as follows: CK1δ/ε kinase assay. Format: biochemical, porcine. The conditions noted are these: 15 μM ATP, read-out: IC50 CK1. The method, then:
as §1, §2
Casein kinase 1 (CK1δ/ε) (porcine brain, native) was assayed with 0.67 µg of CKS peptide ([…]pSAYSITA), a CK1 specific substrate obtained from Millegen (Labege, France).

For a further test, the target named is T2, DYRK1A (Rattus norvegicus, UniProt Q63470).
T2 construct: GST; made in house; host or cells: Escherichia coli
Put plainly: DYRK1A kinase assay. Format: biochemical. The conditions noted are these: 15 μM ATP. The method, then:
as §1
After 30-min incubation at 30 °C, the reaction was stopped by harvesting, using a FilterMate harvester (Packard), onto P81 phospho-cellulose papers (GE Healthcare, Chicago, IL, USA) which were washed in 1% phosphoric acid. Scintillation fluid was added and the radioactivity measured in a Packard counter. Blank values were subtracted and activities calculated as pmoles of phosphate incorporated for the 30-min incubation. The activities were expressed in % of the maximal activity, i.e., in the absence of inhibitors. Controls were performed with appropriate dilutions of DMSO. […]

The target of another test is GSK-3α/β. The test is described as follows: GSK-3α/β kinase assay. Format: biochemical, porcine. The conditions noted are these: 15 μM ATP, read-out: IC50 GSK3α/β. The method, then: as §1, §2
GSK-3α/β (porcine brain, native) was assayed, as described for CDK5/p25 but in Buffer A and using a GSK-3 specific substrate (GS-1: […]pEDEEE) (pS stands for phosphorylated serine). GS-1 was synthesized by Millegen (Labege, France).

Where two headings read alike, the source gives them in different places. Some results are limits rather than exact numbers.

T1 sequence (Q00535 whole entry): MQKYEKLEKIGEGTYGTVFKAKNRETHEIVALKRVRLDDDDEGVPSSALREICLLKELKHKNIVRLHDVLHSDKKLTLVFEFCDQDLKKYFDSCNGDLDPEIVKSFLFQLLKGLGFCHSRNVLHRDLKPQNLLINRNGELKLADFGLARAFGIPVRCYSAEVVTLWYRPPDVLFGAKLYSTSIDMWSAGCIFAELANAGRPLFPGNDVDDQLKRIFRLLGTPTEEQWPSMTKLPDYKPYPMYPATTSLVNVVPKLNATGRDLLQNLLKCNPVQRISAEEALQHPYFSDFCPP
T1 sequence (Q15078 99-307 partner limits assumed): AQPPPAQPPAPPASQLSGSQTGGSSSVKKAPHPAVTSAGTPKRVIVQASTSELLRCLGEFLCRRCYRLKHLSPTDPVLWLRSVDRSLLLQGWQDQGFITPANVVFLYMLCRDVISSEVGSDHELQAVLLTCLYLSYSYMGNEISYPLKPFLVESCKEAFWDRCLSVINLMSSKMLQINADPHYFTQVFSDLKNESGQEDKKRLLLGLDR

In the case of `O=C1NC(=S)S/C1=C\c1ccc(O)cc1` [Compound 3e, (5Z)-5-(4-Hydroxybenzylidene)-2-thioxo-1,3-thiazolidin-4-one], the IC50 was above 10 µM at CDK5/p25 (Table 4), above 10 µM at Casein kinase 1 (CK1δ/ε) (Table 4), 0.028 µM on DYRK1A (Table 4) and above 10 µM on GSK-3α/β (Table 4).

As for `O=C1NC(=S)S/C1=C\c1cccc(-c2ccc3c(c2)OCO3)n1` [Compound 3h, (5Z)-5-{[6-(1,3-Benzodioxol-5-yl)pyridin-2-yl]methylene}-2-thioxo-1,3-thiazolidin-4-one], the IC50 is above 10 µM on CDK5/p25 (Table 4), above 10 µM on Casein kinase 1 (CK1δ/ε) (Table 4), 0.35 µM at DYRK1A (Table 4) and 1.6 µM on GSK-3α/β (Table 4).

Regarding `O=C1NC(=S)S/C1=C\c1ccc2c(c1)CCCO2` [Compound 3m, (5Z)-5-(Chroman-6-yl)methylene-2-thioxo-1,3-thiazolidin-4-one], the IC50 is above 10 µM on CDK5/p25 (Table 4), above 10 µM on Casein kinase 1 (CK1δ/ε) (Table 4), 6.5 µM against DYRK1A (Table 4) and above 10 µM at GSK-3α/β (Table 4).

Turning to `O=C1NC(=S)S/C1=C\c1ccc2c(c1)OCCCO2` [Compound 3n, (5Z)-5-(3,4-Dihydro-2H-1,5-benzodioxepine-7-yl)methylene-2-thioxo-1,3-thiazolidin-4-one], the IC50 at CDK5/p25 (Table 4), on Casein kinase 1 (CK1δ/ε) (Table 4), against DYRK1A (Table 4) and at GSK-3α/β (Table 4) was above 10 µM each time.

In the case of `NN1C(=O)/C(=C/c2ccc3c(c2)OCO3)SC1=S` [Compound 3o, (5Z)-3-Amino-5-benzo[1,3]dioxol-5-ylmethylene-2-thioxo-thiazolidin-4-one], the IC50 against CDK5/p25 (Table 4), at Casein kinase 1 (CK1δ/ε) (Table 4), against DYRK1A (Table 4) and at GSK-3α/β (Table 4) was above 10 µM each time.

For the compound `O=C(NN1C(=O)/C(=C/c2ccc3c(c2)OCO3)SC1=S)c1ccccc1` [Compound 3p, (5Z)-N-(5-Benzo[1,3]dioxol-5-ylmethylene-4-oxo-2-thioxo-thiazolidin-3-yl)-benzamide], the IC50 against CDK5/p25 (Table 4), on Casein kinase 1 (CK1δ/ε) (Table 4), on DYRK1A (Table 4) and on GSK-3α/β (Table 4) was above 10 µM each time.

As for `O=C(Cc1ccccc1)NN1C(=O)/C(=C/c2ccc3c(c2)OCO3)SC1=S` [Compound 3q, (5Z)-N-(5-Benzo[1,3]dioxol-5-ylmethylene-4-oxo-2-thioxo-thiazolidin-3-yl)-2-phenyl-acetamide], the IC50 against CDK5/p25 (Table 4), on Casein kinase 1 (CK1δ/ε) (Table 4), against DYRK1A (Table 4) and at GSK-3α/β (Table 4) was above 10 µM each time.

Regarding `O=C(CCc1ccccc1)NN1C(=O)/C(=C/c2ccc3c(c2)OCO3)SC1=S` [Compound 3r, (5Z)-N-(5-Benzo[1,3]dioxol-5-ylmethylene-4-oxo-2-thioxo-thiazolidin-3-yl)-3-phenyl-propionamide], the IC50 on CDK5/p25 (Table 4), at Casein kinase 1 (CK1δ/ε) (Table 4), against DYRK1A (Table 4) and on GSK-3α/β (Table 4) was above 10 µM in each case.

Regarding `COc1ccc(C(=O)NN2C(=O)/C(=C/c3ccc4c(c3)OCO4)SC2=S)cc1` [Compound 3s], the IC50 against CDK5/p25 (Table 4), on Casein kinase 1 (CK1δ/ε) (Table 4), at DYRK1A (Table 4) and at GSK-3α/β (Table 4) was above 10 µM in each case.

Turning to `O=C1/C(=C/c2ccc3c(c2)OCO3)SC(=S)N1NS(=O)(=O)c1ccccc1` [Compound 3t, (5Z)-N-(5-Benzo[1,3]dioxol-5-ylmethylene-4-oxo-2-thioxo-thiazolidin-3-yl)-benzenesulfonamide], the IC50 against CDK5/p25 (Table 4), at Casein kinase 1 (CK1δ/ε) (Table 4), against DYRK1A (Table 4) and on GSK-3α/β (Table 4) was above 10 µM in each case.

With `O=C(O)CN1C(=O)/C(=C/c2ccc3c(c2)OCO3)SC1=S` [Compound 3u, (5Z)-(5-Benzo[1,3]dioxol-5-ylmethylene-4-oxo-2-thioxo-thiazolidin-3-yl)-acetic acid], the IC50 against CDK5/p25 (Table 4) is above 10 µM; on Casein kinase 1 (CK1δ/ε) (Table 4) it was above 10 µM; against DYRK1A (Table 4), 0.16 µM; on GSK-3α/β (Table 4) it was above 10 µM.

Turning to `O=C(O)CCN1C(=O)/C(=C/c2ccc3c(c2)OCO3)SC1=S` [Compound 3v, (5Z)-3-(5-Benzo[1,3]dioxol-5-ylmethylene-4-oxo-2-thioxo-thiazolidin-3-yl)-propionic acid], the IC50 is above 10 µM at CDK5/p25 (Table 4), above 10 µM on Casein kinase 1 (CK1δ/ε) (Table 4), 0.7 µM on DYRK1A (Table 4) and above 10 µM on GSK-3α/β (Table 4).

For the compound `O=C1N=C(N2CCOCC2)S/C1=C\c1ccc2c(c1)OCO2` [Compound 5a, (5Z)-5-(1,3-Benzodioxol-5-ylmethylene)-2-(morpholin-1-yl)-1,3-thiazol-4(5H)-one], the IC50 at CDK5/p25 (Table 5) was above 10 µM; on Casein kinase 1 (CK1δ/ε) (Table 5), above 10 µM; on DYRK1A (Table 5), 0.63 µM; on GSK-3α/β (Table 5) it was 7.4 µM.

As to `COc1ccc(/C=C2\SC(N3CCOCC3)=NC2=O)cc1OC` [Compound 5b, (5Z)-5-(3,4-Dimethoxybenzylidene)-2-(morpholin-1-yl)-1,3-thiazol-4(5H)-one], the IC50 at CDK5/p25 (Table 5), on Casein kinase 1 (CK1δ/ε) (Table 5), at DYRK1A (Table 5) and at GSK-3α/β (Table 5) was above 10 µM in each case.

On to `O=C1N=C(N2CCNCC2)S/C1=C\c1ccc2c(c1)OCO2` [Compound 5e, (5Z)-5-(1,3-Benzodioxol-5-ylmethylene)-2-(piperazin-1-yl)-1,3-thiazol-4(5H)-one], for which the IC50 against CDK5/p25 (Table 5) is above 10 µM; on Casein kinase 1 (CK1δ/ε) (Table 5) it was above 10 µM; against DYRK1A (Table 5) it was 1.8 µM; at GSK-3α/β (Table 5), at most 8.8 µM.

For the compound `CN1CCN(C2=NC(=O)/C(=C/c3ccc4c(c3)OCO4)S2)CC1` [Compound 5f, (5Z)-5-(1,3-Benzodioxol-5-ylmethylene)-2-(4-N-methylpiperazin-1-yl)-1,3-thiazol-4(5H)-one], the IC50 at CDK5/p25 (Table 5) is above 10 µM; on Casein kinase 1 (CK1δ/ε) (Table 5), above 10 µM; against DYRK1A (Table 5), 2.3 µM; at GSK-3α/β (Table 5), above 10 µM.

`O=C1N=C(N2CCSCC2)S/C1=C\c1ccc2c(c1)OCO2` [Compound 5g, (5Z)-5-(1,3-Benzodioxol-5-ylmethylene)-2-(thiomorpholin-1-yl)-1,3-thiazol-4(5H)-one]: the IC50 against CDK5/p25 (Table 5) was above 10 µM; on Casein kinase 1 (CK1δ/ε) (Table 5) it was above 10 µM; against DYRK1A (Table 5), 0.4 µM; at GSK-3α/β (Table 5), at least 10 µM.

For the compound `COc1ccc(/C=C2\SC(N3CCSCC3)=NC2=O)cc1OC` [Compound 5h, (5Z)-5-(3,4-Dimethoxybenzylidene)-2-(thiomorpholin-1-yl)-1,3-thiazol-4(5H)-one], the IC50 at CDK5/p25 (Table 5), on Casein kinase 1 (CK1δ/ε) (Table 5), on DYRK1A (Table 5) and on GSK-3α/β (Table 5) was above 10 µM each time.

For `O=C1N=C(N2CCCCC2)S/C1=C\c1ccc2c(c1)OCO2` [Compound 5i, (5Z)-5-(1,3-Benzodioxol-5-ylmethylene)-2-(piperidin-1-yl)-1,3-thiazol-4(5H)-one], the IC50 was above 10 µM against CDK5/p25 (Table 5), above 10 µM at Casein kinase 1 (CK1δ/ε) (Table 5), 0.053 µM against DYRK1A (Table 5) and 7.4 µM on GSK-3α/β (Table 5).

In the case of `O=C1N=C(N2CCN(Cc3ccc4c(c3)OCO4)CC2)S/C1=C\c1ccc2c(c1)OCO2` [Compound 5j, (5Z)-5-(1,3-Benzodioxol-5-ylmethylene)-2-[1-(1,3-benzodioxol-5-ylmethyl)piperazin-1-yl]-1,3-thiazol-4(5H)-one], the IC50 against CDK5/p25 (Table 5) is above 10 µM; at Casein kinase 1 (CK1δ/ε) (Table 5), above 10 µM; on DYRK1A (Table 5), at least 10 µM; on GSK-3α/β (Table 5), above 10 µM.

As to `O=C1N=C(N2CCN(c3ccc(F)cc3)CC2)S/C1=C\c1ccc2c(c1)OCO2` [Compound 5k, (5Z)-5-(1,3-Benzodioxol-5-ylmethylene)-2-[1-(4-fluorophenyl)piperazin-1-yl]-1,3-thiazol-4(5H)-one], the IC50 was above 10 µM against CDK5/p25 (Table 5), above 10 µM at Casein kinase 1 (CK1δ/ε) (Table 5), 1.6 µM on DYRK1A (Table 5) and above 10 µM on GSK-3α/β (Table 5).

Turning to `O=C1N=C(N2CCN(c3ncccn3)CC2)S/C1=C\c1ccc2c(c1)OCO2` [Compound 5l, (5Z)-5-(1,3-Benzodioxol-5-ylmethylene)-2-[4-(pyrimidin-2-yl)piperazin-1-yl]-1,3-thiazol-4(5H)-one], the IC50 is above 10 µM on CDK5/p25 (Table 5), above 10 µM on Casein kinase 1 (CK1δ/ε) (Table 5), 1.8 µM against DYRK1A (Table 5) and above 10 µM at GSK-3α/β (Table 5).

Source of the values: PMC8623179, “Design and Microwave Synthesis of New (5Z) 5-Arylidene-2-thioxo-1,3-thiazolinidin-4-one and (5Z) 2-Amino-5-arylidene-1,3-thiazol-4(5H)-one as New Inhibitors of Protein Kinase DYRK1A” (Pharmaceuticals, 2021).
